Reference: the NIST ThermoML archive (doi:10.1021/je8009336)

How the values were obtained:
[1] = refractive index (Na D-line) (dimensionless); settings: 101.33 kPa, Liquid, Standard Abbe refractometry
[2] = Liquid; for mass density: Vibrating tube method; for speed of sound: Vibrating Tube Densimeter
[3] = refractive index (Na D-line) (dimensionless); xn = mol fraction of the nth substance listed; settings: 313.15 K, 101 kPa, Liquid, Standard Abbe refractometry
[4] = xn = mol fraction of the nth substance listed; settings: 313.15 K, 101 kPa, Liquid; for speed of sound: Vibrating Tube Densimeter; for mass density: Vibrating tube method

CCc1ccccc1 [ethylbenzene]
[1]
Settings	refractive index
298.15 K	1.49304
313.15 K	1.48538

[2]
Settings	mass density, 298.15 K [kg/m3]	mass density, 313.15 K [kg/m3]	speed of sound, 313.15 K [m/s]
101 kPa	–	849.3	1257.3
101.33 kPa	862.5	–	–

CCc1ccccc1 [ethylbenzene] + C1CCCC1
x2 = 0
Settings	mass density [kg/m3]	refractive index	speed of sound [m/s]
[3]	–	1.48538	–
[4]	849.3	–	1257.3

CCc1ccccc1 [ethylbenzene] + C1CCCCC1
Settings	mass density, [4] [kg/m3]	refractive index, [3]	speed of sound, [4] [m/s]
x2 = 0	849.3	1.48538	1257.3
x2 = 0.0515	844.7	1.4814	1251.8
x2 = 0.0976	840.5	1.47828	1247
x2 = 0.2494	826.7	1.46788	1231.8
x2 = 0.3647	816.2	1.45999	1221.3
x2 = 0.3855	814.3	1.45831	1219.3
x2 = 0.5028	803.6	1.45026	1209.4
x2 = 0.6009	794.6	1.44349	1201.9
x2 = 0.7005	785.6	1.43614	1195
x2 = 0.7976	776.9	1.42925	1189.2
x2 = 0.9017	768	1.42208	1184.5
x2 = 0.9504	763.8	1.41865	1182.8

CCc1ccccc1 [ethylbenzene] + CC1CCCCC1
x2 = 0
Settings	mass density [kg/m3]	refractive index	speed of sound [m/s]
[3]	–	1.48538	–
[4]	849.3	–	1257.3

CC1CCCCC1 [methylcyclohexane]
[1]
Settings	refractive index
298.15 K	1.42053
313.15 K	1.41272

[2]
Settings	mass density, 298.15 K [kg/m3]	mass density, 313.15 K [kg/m3]	speed of sound, 313.15 K [m/s]
101 kPa	–	752	1149.6
101.33 kPa	764.9	–	–

CC1CCCCC1 [methylcyclohexane] + CCc1ccccc1
Settings	mass density, [4] [kg/m3]	refractive index, [3]	speed of sound, [4] [m/s]
x1 = 0.0509	843.8	1.48108	1249.9
x1 = 0.0975	838.9	1.4774	1243.4
x1 = 0.1957	828.6	1.46965	1230.3
x1 = 0.2794	820	1.46339	1219.8
x1 = 0.4006	807.9	1.45428	1205.4
x1 = 0.4962	798.4	1.44736	1194.9
x1 = 0.5977	788.6	1.44003	1184.5
x1 = 0.6968	779.2	1.43303	1174.9
x1 = 0.7988	769.7	1.42601	1165.7
x1 = 0.8973	760.9	1.41941	1157.5
x1 = 0.9483	756.4	1.41609	1153.5
x1 = 1	752	1.41272	1149.6
